Values of other authors, collected in patent US6905813B2, “Processing agent for silver halide color photosensitive material and processing method thereof” (Chugai Photo Chemical Co., Ltd., priority 2001, dated 2005).
Like-named read-outs stand apart in the source and are kept apart here.

[1] = Table 1, additives of Example 1
[2] = Table 3, additives of Example 2
[3] = Table 7, additives of Example 4
[4] = Table 5, additives of Example 3

Q: For CC(N)CCN (centres unmarked) [1,3-diaminobutane], which pKa [1] is on record?
A: 8.74

Q: And the pKa [2]?
A: 8.74

Q: What about the pKa [3] of the same compound?
A: 8.74

Q: With NCCCCN [1,4-diaminobutane] as the compound, how does the pKa [1] read?
A: 9.44

Q: What about the pKa [2] of the same compound?
A: 9.44

Q: And the pKa [3]?
A: 9.44

Q: Which pKa [4] does the source give for Nc1ccccn1 [2-aminopyridine] here?
A: 6.79

Q: With O=S([O-])[O-].[Na+].[Na+] [Sodium sulfite] as the compound, how does the pKa [1] read?
A: 7.19

Q: What about the pKa [2] of the same compound?
A: 7.19

Q: What about the pKa [4] of the same compound?
A: 7.19

Q: And the pKa [3]?
A: 7.19
